Values of other authors, collected in patent publication US8951536B2, “N-hydroxyamidinoheterocycles as modulators of indoleamine 2,3-dioxygenase” (Incyte Corporation, priority 2005, dated 2015).

Experiments:
[1] = system: P815 tumor; details: pre-immunized immune-competent mice; Uyttenhove et al.
[2] = system: tumor growth in mice; details: Muller et al. 2005
[3] = system: LLC tumors; details: LLC tumors in C57Bl/6 mice, versus placebo; Friberg et al.
[4] = system: CD123-positive dendritic cells; details: mature and immature CD123-positive dendritic cells; Munn et al. 2002
[5] = system: HeLa cells co-cultured with peripheral blood lymphocytes (PBLs); details: Logan et al. 2002
[6] = system: pregnant mice (carrying syngeneic or allogeneic fetuses); details: pregnant mice exposed to 1MT; Munn et al. 1998

Cn1cc(CC(N)C(=O)O)c2ccccc21 (stereo not drawn) [Example 1-MT]
growth of tumors [1]: inhibited
tumor growth with chemotherapeutic agents [2]: can synergize with chemotherapeutic agents to reduce tumor growth in mice
formation of tumors [3]: markedly delayed

Cn1cc(C[C@H](N)C(=O)O)c2ccccc21 [1-methyl-tryptophan]
IDO suppressive activity on T-cell activity [4]: blocked
reduction in PBL proliferation upon treatment with IL2 [5]: reversed
rejection of allogeneic concepti [6]: rapid, T cell-induced rejection of all allogeneic concept
